The values below are quoted from earlier work in publication PMC6376154 (International Journal for Parasitology: Drugs and Drug …, 2019).

Where two headings read alike, the source gives them in different places.

The subject of the data set is P. falciparum 3D7 asexual blood stage. Conditions: cited from earlier work.
Setting [1] is: MMV Malaria Box data sheet (supplement mmc2.xls), ref MMV data sheet.
Where [2] appears, read: MMV Malaria Box data sheet (supplement mmc2.xls), ref MMV data sheet, read-out: EC50_nM.
The mark [3] stands for this setting: value(s) per source (GSK, GNF, StJude), separated by semicolon, ref ChEMBL-NTD, read-out: CHEMBL EC50.
Where [4] appears, read: MMV Malaria Box data sheet, ref MMV data sheets.
Where [5] appears, read: MMV Malaria Box data sheet, ref MMV data sheets, read-out: EC50_nM.
The mark [6] stands for this setting: source GSK, ref ChEMBL_NTD, read-out: CHEMBL EC50.
Setting [7] is: MMV Malaria Box sheet, ref MMV data sheets.
Where [8] appears, read: MMV Malaria Box sheet, ref MMV data sheets, read-out: EC50_nM.
[9] abbreviates: ChEMBL-NTD value per source (GNF, GSK, StJude), several values in a cell follow the order of the sources, read-out: CHEMBL EC50.
The mark [10] stands for this setting: source GNF, ref ChEMBL_NTD, read-out: CHEMBL EC50.

For `Cn1c(=O)c2cc(C(=O)NCCCN3CCCCCC3)sc2c2ccccc21` [MMV019313], the “percent_inh @ 5 uM” value under setting [1] was 97%. In addition, the EC50 was 669 nM under setting [2] and 689 nM under setting [3].
On to `CCC1(C)CC(CCNCc2ccccc2O)(c2ccc(C)cc2)CCO1` (stereo not shown) [MMV019406], for which the “percent_inh @ 5 uM” value under setting [4] is listed as 97%. The EC50 under setting [5] is 142 nM and the EC50 under setting [6] was 38.8 nM.
Take `c1ccc2c(NCCCCCCNc3c4c(nc5ccccc35)CCCC4)c3c(nc2c1)CCCC3` [MMV019555]: the “percent_inh @ 5 uM” value under setting [7] was 100%. For the same molecule, the EC50 under setting [8] was 376 nM and the EC50 under setting [6] was 196 nM.
Regarding `COc1ccc(N2CCN(C(CNC(=O)C3CCCCC3)c3ccc4c(c3)OCO4)CC2)cc1` (stereo not shown) [MMV019662], the “percent_inh @ 5 uM” value under setting [1] was 97%. In addition, the EC50 is 1110 nM under setting [2] and 566 nM under setting [3].
Take `O=C(Nc1ccc(N2CCN(Cc3ccccc3)CC2)cc1)c1cccs1` [MMV019670]: the “percent_inh @ 5 uM” value under setting [1] is reported as 59%. Also, the EC50 was 1080 nM under setting [2] and 769 nM under setting [3].
Take `COc1ccc(C2NCCc3c2[nH]c2ccccc32)cc1CN1CCN(c2ccc(F)cc2)CC1` (stereo not shown) [MMV019690]: the “percent_inh @ 5 uM” value under setting [7] is listed as 97%. In addition, the EC50 reads like this: under setting [8], 934 nM; under setting [6], 776 nM.
As to `O=C(Nc1ccc(N2CCCCC2)c(Cl)c1)c1ccc(Br)o1` [MMV019700], the “percent_inh @ 5 uM” value under setting [1] is reported as 96%. For the same molecule, the EC50 is, setting by setting: under setting [2], 735 nM; under setting [3], 549 nM.
Take `Cc1[nH]c(-c2ccc(F)cc2)cc1C(=O)NC1CCN(Cc2ccccc2)CC1` [MMV019738]: the “percent_inh @ 5 uM” value under setting [1] is listed as 99%. The EC50 by setting is: under setting [2], 771 nM; under setting [3], 1130 nM.
As to `Cc1ccc(C)c(Cn2c(N3CCC(C(=O)NCc4cccs4)CC3)nc3ccccc32)c1` [MMV019741], the “percent_inh @ 5 uM” value under setting [7] is reported as 97%. Moreover, the EC50 is 1330 nM under setting [8] and 938 nM under setting [6].
Regarding `Cc1ccc(Cl)cc1N1CCN(CCCNC(=O)C2CCN(c3nc4ccccc4[nH]3)CC2)CC1` [MMV019746], under setting [1], the “percent_inh @ 5 uM” value is reported as 97%. In addition, the EC50 was 1330 nM under setting [2] and 895 nM under setting [3].
For `COc1ccc(C(=O)Nc2ccc3nc(N4CCCCC4)cc(C)c3c2)cc1OC` [MMV019758], under setting [1], the “percent_inh @ 5 uM” value is 76%. In addition, the EC50 under setting [3] is 994 nM.
For the molecule `COc1cccc(C(=O)Nc2ccc(-c3nc4ccccc4[nH]3)cc2)c1` [MMV019762], the “percent_inh @ 5 uM” value under setting [7] was 83%. In addition, the EC50 under setting [6] was 802 nM.
For `Cc1cc(C)c2nc(N3CCC(C(=O)NCCCN4CCC(N5CCCCC5)CC4)CC3)sc2c1` [MMV019780], the “percent_inh @ 5 uM” value under setting [1] was 98%. For the same molecule, the EC50 was 697 nM under setting [2] and 838 nM under setting [3].
For the molecule `Fc1ccc2[nH]c3c(NCCCN4CCOCC4)ncnc3c2c1` [MMV019871], under setting [4], the “percent_inh @ 5 uM” value is 98%. Also, the EC50 is 345 nM under setting [5] and 714 nM under setting [6].
As to `O=C(NC1CCN(Cc2ccccc2)CC1)c1cc(C(=O)NC2CCN(Cc3ccccc3)CC2)cc(C(=O)NC2CCN(Cc3ccccc3)CC2)c1` [MMV019881], the EC50 under setting [9] is 1040 nM.
As for `Clc1cc(Br)ccc1-c1ccc(CNCC2CCNCC2)o1` [MMV019918], under setting [1], the “percent_inh @ 5 uM” value is reported as 96%. Also, the EC50 was 800 nM under setting [2] and 1510 nM under setting [3].
For the molecule `O=C(NCCCN1CCC(N2CCCCC2)CC1)C1=Cc2cc(Br)ccc2OC1` [MMV019995], under setting [7], the “percent_inh @ 5 uM” value was 99%. For the same molecule, the EC50 runs as follows: under setting [8], 563 nM; under setting [6], 853 nM.
Consider `Cc1cc(N(C)C)nc(Nc2ccc(NC(=O)Nc3ccccc3)cc2)n1` [MMV020243], for which the EC50 under setting [9] was 134 nM.
With `O=C(NC1CCN(Cc2ccccc2)CC1)c1cc(-c2ccncc2)nc2ccc(Cl)cc12` [MMV020275], under setting [1], the “percent_inh @ 5 uM” value was 92%. In addition, the EC50 is 1020 nM under setting [2] and 920 nM under setting [3].
Regarding `COc1ccc(-c2cn3c(C(=O)Nc4ccccc4Cl)c(-c4ccccc4)c4c3n2CCCC4)cc1` [MMV020403], the EC50 under setting [9] was 792 nM.
Regarding `CCn1c(CN2CCN(Cc3ccccc3)CC2)nc2cc(NC(=O)c3cccs3)ccc21` [MMV020439], the “percent_inh @ 5 uM” value under setting [4] is on record as 97%. The EC50 was 512 nM under setting [5] and 402 nM under setting [6].
In the case of `O=C(NC1CCN(Cc2ccccc2)CC1)c1cc(-c2cccnc2)nc2ccc(Cl)cc12` [MMV020490], the “percent_inh @ 5 uM” value under setting [7] is 91%. Also, the EC50 under setting [8] was 1010 nM and the EC50 under setting [6] was 759 nM.
`CC1CN(C(=O)c2sc3ccccc3c2Cl)CC(C)O1` (stereo not shown) [MMV020492]: the “percent_inh @ 5 uM” value under setting [4] was 95%. The EC50 was 25.5 nM under setting [5] and 87.9 nM under setting [6].
As to `CNCCCNc1ccnc2cc(Cl)ccc12` [MMV020500], under setting [4], the “percent_inh @ 5 uM” value is listed as 98%. In addition, the EC50 runs as follows: under setting [5], 82.2 nM; under setting [6], 62.4 nM.
`CN(C)CCCNCc1ccc(-c2ccc(F)c(Cl)c2)o1` [MMV020505]: under setting [7], the “percent_inh @ 5 uM” value was 96%. The EC50 was 876 nM under setting [8] and 802 nM under setting [6].
With `CCN1CCN(Cc2ccc(NC(=O)c3cc4ccc5cccnc5c4[nH]3)cc2)CC1` [MMV020548], the “percent_inh @ 5 uM” value under setting [4] is given as 70%. For the same molecule, the EC50 under setting [5] is 361 nM and the EC50 under setting [6] is 848 nM.
`CC1CCN(Cc2ccc(NC(=O)c3cc4ccc5cccnc5c4[nH]3)cc2)CC1` [MMV020549]: under setting [4], the “percent_inh @ 5 uM” value is given as 97%. Besides, the EC50 is 274 nM under setting [5] and 779 nM under setting [6].
Turning to `O=C(Nc1ccc(CN2CCOCC2)cc1)c1ccc(-c2cc(Cl)ccc2Cl)o1` [MMV020651], the “percent_inh @ 5 uM” value under setting [7] was 97%. Moreover, the EC50 under setting [8] was 1940 nM and the EC50 under setting [6] is 613 nM.
Regarding `CCC(O)c1ccc(Br)cc1NC(=O)c1cccc(Cl)c1` (stereo not shown) [MMV020654], under setting [1], the “percent_inh @ 5 uM” value is given as 97%. The EC50 was 640 nM under setting [2] and 1020 nM under setting [3].
In the case of `CC(=O)Nc1nnc(SCc2c(C)cc(C(C)(C)C)cc2C)s1` [MMV020700], under setting [1], the “percent_inh @ 5 uM” value is recorded as 96%. Further, the EC50 is, setting by setting: under setting [2], 871 nM; under setting [3], 704 nM.
Consider `COc1cc(-c2nc(-c3ccccc3)c(-c3ccccc3)[nH]2)cc(OC)c1O` [MMV020750], for which, under setting [9], the EC50 is 774 nM.
With `Oc1ccccc1CNCC12CC3CC(CC(C3)C1)C2` [MMV020788], the “percent_inh @ 5 uM” value under setting [4] is on record as 96%. Also, the EC50 under setting [5] is 22.6 nM and the EC50 under setting [6] was 279 nM.
As for `COc1ccc(Br)cc1C1Nc2ccc3ccccc3c2C2=C1C(=O)CC(c1ccccc1)C2` (stereo not shown) [MMV020885], under setting [4], the “percent_inh @ 5 uM” value was 95%. For the same molecule, the EC50 was 180 nM under setting [5] and 590 nM under setting [6].
On to `Cc1ccc(-c2nc3ccccc3o2)cc1NCc1cc(Cc2ccccc2)ccc1O` [MMV020912], for which the EC50 under setting [9] is 1030 nM.
As to `CCC(=O)Nc1nnc(Cc2ccc(OC)c(OC)c2)s1` [MMV020942], the “percent_inh @ 5 uM” value under setting [7] is recorded as 47%. Moreover, the EC50 under setting [6] was 910 nM.
Take `COc1cc(SC)ccc1C(=O)N1CCCC(C)C1` (stereo not shown) [MMV056726]: the “percent_inh @ 2 uM” value (2 uM, MMV Malaria Box data sheet (supplement mmc2.xls), ref MMV data sheet) was 45%. Further, the EC50 by setting is: under setting [2], 4000 nM; under setting [3], 9810 nM.
As for `CN(C)c1ccc(N=Cc2ccc(N3CCOCC3)cc2)cc1` [MMV073843], the EC50 under setting [9] was 175 nM.
Regarding `CCOc1ccc(C2N(C)c3ccccc3N2C)cc1` [MMV075490], the “percent_inh @ 5 uM” value under setting [1] is listed as 72%. Moreover, the EC50 under setting [2] is 941 nM.
As to `COc1cc2c(cc1OC)C1=NNC(=O)C1=NC(C)(C)C2` [MMV084940], the EC50 reads like this: under setting [8], 1040 nM; under setting [10], 1580 nM.
For `COc1ccccc1N=C1C(=O)c2ccccc2C(O)=C1N1CCCCC1` [MMV085203], under setting [4], the “percent_inh @ 5 uM” value is 98%. In addition, the EC50 was 5.3 nM under setting [5] and 28 nM under setting [10].
In the case of `CCOc1ccc(-n2cc(-c3ccccc3)c3c(SCc4cc(C)ccc4C)ncnc32)cc1` [MMV085471], the “percent_inh @ 5 uM” value under setting [7] is given as 97%. Moreover, the EC50 reads like this: under setting [8], 1700 nM; under setting [10], 2010 nM.
Consider `CCCCCC(=O)N1c2ccccc2N=C2CC(c3ccc(OC)c(OC)c3)CC(O)=C2C1c1ccc(C(F)(F)F)cc1` (stereo not shown) [MMV085583], for which the “percent_inh @ 5 uM” value under setting [4] is given as 100%. Further, the EC50 reads like this: under setting [5], 237 nM; under setting [10], 107 nM.
`Cc1ccc(C(=O)c2oc3ccc4c(C)cc(=O)oc4c3c2C)cc1` [MMV086103]: the EC50 under setting [9] is 1030 nM.
`COc1cc(CNCCc2ccc(Cl)cc2)cc(OC)c1O` [MMV128432]: the EC50 under setting [9] is 6890 nM.
For the molecule `CC(C)(C)c1ccc(C(=O)Nc2nc3ccccc3s2)cc1` [MMV142383], the “percent_inh @ 5 uM” value under setting [1] was 81%. Further, under setting [3], the EC50 is 15000 nM.
Consider `COc1ccc2nc(C)cc(Nc3ccccc3O)c2c1` [MMV274073], for which the EC50 under setting [2] is 686 nM.
Turning to `CCn1nc(-c2ccc(C(=O)OC)cc2)nc2c(=O)n(C)c(=O)nc1-2` [MMV306025], the EC50 under setting [2] was 693 nM.
On to `CCOc1ccccc1CN1CCc2nc3cc(C(C)(C)C)nn3c(O)c2C1` [MMV396595], for which the EC50 under setting [8] is 1010 nM.
Regarding `CCOc1c(Cl)cc(CNCC(O)c2ccccc2)cc1OC` (stereo not shown) [MMV396632], the EC50 under setting [8] is 1050 nM.
Turning to `CCOc1cc(CNC(C)C(O)c2ccccc2)cc(Cl)c1OCC` (stereo not shown) [MMV396633], under setting [2], the EC50 is 1240 nM.
As to `Cc1cc(N2CCCC2)nc(Nc2ccc(NC(=O)CCc3ccccc3)cc2)n1` [MMV396669], the EC50 under setting [8] is 1070 nM.
Take `O=C(NCC(c1ccsc1)N1CCCCCC1)c1ccc(C(F)(F)F)cc1` (stereo not shown) [MMV396672]: the EC50 under setting [5] was 433 nM.
In the case of `O=C(CSc1nccn2nc(-c3ccccc3)cc12)Nc1cc(C(F)(F)F)ccc1Cl` [MMV396678], under setting [5], the EC50 was 218 nM.
